Assay results published in ChEMBL document CHEMBL5143597, “Design and synthesis of novel spirocyclic carboxylic acids as potent and orally bioavailable DGAT1 inhibitors and their biological evaluation” (Bioorg Med Chem Lett, 2022).

Tests used:
[1] = Drug distribution in Wistar rat adipose tissue 10 mg/kg, po and measured at 8 hrs post dose by LC-MS/MS analysis; type: ADME, organism-based; conditions: read-out: Ct
[2] = Drug distribution in Wistar rat adipose tissue 10 mg/kg, po and measured at 1 hrs post dose by LC-MS/MS analysis; type: ADME, organism-based; conditions: read-out: Ct
[3] = Drug distribution in Wistar rat plasma 10 mg/kg, po and measured at 8 hrs post dose by LC-MS/MS analysis; type: ADME, organism-based
[4] = Metabolic stability in rat liver microsomes assessed as parent compound remaining at 1 uM and measured at 30 mins by LC-MS/MS analysis; type: ADME, Microsome; conditions: read-out: Stability
[5] = Metabolic stability in mouse liver microsomes assessed as parent compound remaining at 1 uM and measured at 30 mins by LC-MS/MS analysis; type: ADME, Microsome; conditions: read-out: Stability
[6] = Metabolic stability in human liver microsomes assessed as parent compound remaining at 1 uM and measured at 30 mins by LC-MS/MS analysis; type: ADME, Microsome; conditions: read-out: Stability
hERG (KCNH2) = hERG (KCNH2) (Homo sapiens, UniProt Q12809); assay: Displacement of [3H]astemizole from human ERG expressed in HEK293 cell membrane at 30 uM for 2 hrs by Radiometric displacement assay; type: toxicity; conditions: HEK293 cell membranes that express hERG, probe [3H]astemizole
[7] = Plasma protein binding in rat; type: ADME, cell-free; conditions: read-out: PPB
[8] = Plasma protein binding in mouse; type: ADME, cell-free; conditions: read-out: PPB (converted)
[9] = Apparent permeability across apical to basolateral side in MDCK cells at 2.5 uM for 90 mins; type: ADME, cell-based, Canis lupus familiaris; conditions: dog
[10] = Volume of distribution at steady state in C57BL/6 mouse at 5 mg/kg, iv or 10 mg/kg, po and measured up to 24 hrs by LC-MS/MS analysis; type: ADME, organism-based; conditions: in vivo, read-out: Vdss
[11] = Clearance in C57BL/6 mouse at 5 mg/kg, iv r 10 mg/kg, po and measured up to 24 hrs by LC-MS/MS analysis; type: ADME, organism-based; conditions: in vivo
[12] = AUC in C57BL/6 mouse at 5 mg/kg, iv or 10 mg/kg, po and measured up to 24 hrs by LC-MS/MS analysis; type: ADME, organism-based; set-up: time < 24 hrs, dose 5 mg/kg, route iv; conditions: in vivo
[13] = Cmax in C57BL/6 mouse at 5 mg/kg, iv or 10 mg/kg, po and measured up to 24 hrs by LC-MS/MS analysis; type: ADME, organism-based; set-up: dose 5 mg/kg, time < 24 hrs, route iv; conditions: in vivo
[14] = Tmax in C57BL/6 mouse at 5 mg/kg, iv or 10 mg/kg, po and measured up to 24 hrs by LC-MS/MS analysis; type: ADME, organism-based; conditions: in vivo
[15] = Half life in C57BL/6 mouse at 5 mg/kg, iv or 10 mg/kg, po and measured up to 24 hrs by LC-MS/MS analysis; type: ADME, organism-based; conditions: in vivo
[16] = Volume of distribution at steady state in Wistar rat at 3 mg/kg, iv or 10 mg/kg, po and measured up to 24 hrs by LC-MS/MS analysis; type: ADME, organism-based; conditions: in vivo, read-out: Vdss
[17] = Clearance in Wistar rat at 3 mg/kg, iv or 10 mg/kg, po and measured up to 24 hrs by LC-MS/MS analysis; type: ADME, organism-based; conditions: in vivo
[18] = AUC in Wistar rat at 3 mg/kg, iv or 10 mg/kg, po and measured up to 24 hrs by LC-MS/MS analysis; type: ADME, organism-based; set-up: dose 3 mg/kg, time < 24 hrs, route iv; conditions: in vivo
[19] = Cmax in Wistar rat at 3 mg/kg, iv or 10 mg/kg, po and measured up to 24 hrs by LC-MS/MS analysis; type: ADME, organism-based; set-up: dose 3 mg/kg, time < 24 hrs, route iv; conditions: in vivo
[20] = Tmax in Wistar rat at 3 mg/kg, iv or 10 mg/kg, po and measured up to 24 hrs by LC-MS/MS analysis; type: ADME, organism-based; conditions: in vivo
[21] = Half life in Wistar rat at 3 mg/kg, iv or 10 mg/kg, po and measured up to 24 hrs by LC-MS/MS analysis; type: ADME, organism-based; conditions: in vivo
[22] = Oral bioavailability in Wistar rat at 10 mg/kg or 3 mg/kg, iv and measured up to 24 hrs by LC-MS/MS analysis; type: ADME, organism-based; conditions: in vivo
[23] = Oral bioavailability in C57BL/6 mouse 10 mg/kg or 5 mg/kg, iv and measured up to 24 hrs by LC-MS/MS analysis; type: ADME, organism-based; conditions: in vivo
[24] = Drug distribution in C57BL/6 mouse plasma 10 mg/kg, po and measured at 1 hrs post dose by LC-MS/MS analysis; type: ADME, organism-based
[25] = Drug distribution in C57BL/6 mouse plasma 10 mg/kg, po and measured at 2 hrs post dose by LC-MS/MS analysis; type: ADME, organism-based
[26] = Drug distribution in C57BL/6 mouse plasma 10 mg/kg, po and measured at 8 hrs post dose by LC-MS/MS analysis; type: ADME, organism-based
[27] = Drug distribution in C57BL/6 mouse adipose tissue 10 mg/kg, po and measured at 1 hrs post dose by LC-MS/MS analysis; type: ADME, organism-based; conditions: read-out: Ct
[28] = Drug distribution in C57BL/6 mouse adipose tissue 10 mg/kg, po and measured at 2 hrs post dose by LC-MS/MS analysis; type: ADME, organism-based; conditions: read-out: Ct
[29] = Drug distribution in C57BL/6 mouse adipose tissue 10 mg/kg, po and measured at 8 hrs post dose by LC-MS/MS analysis; type: ADME, organism-based; conditions: read-out: Ct
[30] = Drug distribution in C57BL/6 mouse liver 10 mg/kg, po and measured at 1 hrs post dose by LC-MS/MS analysis; type: ADME, organism-based; conditions: read-out: Ct
[31] = Drug distribution in C57BL/6 mouse liver 10 mg/kg, po and measured at 2 hrs post dose by LC-MS/MS analysis; type: ADME, organism-based; conditions: read-out: Ct
[32] = Drug distribution in C57BL/6 mouse liver 10 mg/kg, po and measured at 8 hrs post dose by LC-MS/MS analysis; type: ADME, organism-based; conditions: read-out: Ct
[33] = Drug distribution in C57BL/6 mouse skeletal muscle 10 mg/kg, po and measured at 1 hrs post dose by LC-MS/MS analysis; type: ADME, organism-based, Skeletal muscle tissue; conditions: read-out: Ct
[34] = Drug distribution in C57BL/6 mouse skeletal muscle 10 mg/kg, po and measured at 2 hrs post dose by LC-MS/MS analysis; type: ADME, organism-based, Skeletal muscle tissue; conditions: read-out: Ct
[35] = Drug distribution in C57BL/6 mouse skeletal muscle 10 mg/kg, po and measured at 8 hrs post dose by LC-MS/MS analysis; type: ADME, organism-based, Skeletal muscle tissue; conditions: read-out: Ct
[36] = Drug distribution in C57BL/6 mouse brain 10 mg/kg, po and measured at 1 hrs post dose by LC-MS/MS analysis; type: ADME, organism-based; conditions: read-out: Ct
[37] = Drug distribution in C57BL/6 mouse brain 10 mg/kg, po and measured at 2 hrs post dose by LC-MS/MS analysis; type: ADME, organism-based; conditions: read-out: Ct
[38] = Drug distribution in C57BL/6 mouse brain 10 mg/kg, po and measured at 8 hrs post dose by LC-MS/MS analysis; type: ADME, organism-based; conditions: read-out: Ct
[39] = Drug distribution in Wistar rat plasma 10 mg/kg, po and measured at 1 hrs post dose by LC-MS/MS analysis; type: ADME, organism-based
[40] = Drug distribution in Wistar rat plasma 10 mg/kg, po and measured at 2 hrs post dose by LC-MS/MS analysis; type: ADME, organism-based
[41] = Drug distribution in Wistar rat adipose tissue 10 mg/kg, po and measured at 2 hrs post dose by LC-MS/MS analysis; type: ADME, organism-based; conditions: read-out: Ct
[42] = Drug distribution in Wistar rat liver 10 mg/kg, po and measured at 1 hrs post dose by LC-MS/MS analysis; type: ADME, organism-based; conditions: read-out: Ct
[43] = Drug distribution in Wistar rat liver 10 mg/kg, po and measured at 2 hrs post dose by LC-MS/MS analysis; type: ADME, organism-based; conditions: read-out: Ct
[44] = Drug distribution in Wistar rat liver 10 mg/kg, po and measured at 8 hrs post dose by LC-MS/MS analysis; type: ADME, organism-based; conditions: read-out: Ct

Sequence of hERG (KCNH2) (Q12809 whole entry): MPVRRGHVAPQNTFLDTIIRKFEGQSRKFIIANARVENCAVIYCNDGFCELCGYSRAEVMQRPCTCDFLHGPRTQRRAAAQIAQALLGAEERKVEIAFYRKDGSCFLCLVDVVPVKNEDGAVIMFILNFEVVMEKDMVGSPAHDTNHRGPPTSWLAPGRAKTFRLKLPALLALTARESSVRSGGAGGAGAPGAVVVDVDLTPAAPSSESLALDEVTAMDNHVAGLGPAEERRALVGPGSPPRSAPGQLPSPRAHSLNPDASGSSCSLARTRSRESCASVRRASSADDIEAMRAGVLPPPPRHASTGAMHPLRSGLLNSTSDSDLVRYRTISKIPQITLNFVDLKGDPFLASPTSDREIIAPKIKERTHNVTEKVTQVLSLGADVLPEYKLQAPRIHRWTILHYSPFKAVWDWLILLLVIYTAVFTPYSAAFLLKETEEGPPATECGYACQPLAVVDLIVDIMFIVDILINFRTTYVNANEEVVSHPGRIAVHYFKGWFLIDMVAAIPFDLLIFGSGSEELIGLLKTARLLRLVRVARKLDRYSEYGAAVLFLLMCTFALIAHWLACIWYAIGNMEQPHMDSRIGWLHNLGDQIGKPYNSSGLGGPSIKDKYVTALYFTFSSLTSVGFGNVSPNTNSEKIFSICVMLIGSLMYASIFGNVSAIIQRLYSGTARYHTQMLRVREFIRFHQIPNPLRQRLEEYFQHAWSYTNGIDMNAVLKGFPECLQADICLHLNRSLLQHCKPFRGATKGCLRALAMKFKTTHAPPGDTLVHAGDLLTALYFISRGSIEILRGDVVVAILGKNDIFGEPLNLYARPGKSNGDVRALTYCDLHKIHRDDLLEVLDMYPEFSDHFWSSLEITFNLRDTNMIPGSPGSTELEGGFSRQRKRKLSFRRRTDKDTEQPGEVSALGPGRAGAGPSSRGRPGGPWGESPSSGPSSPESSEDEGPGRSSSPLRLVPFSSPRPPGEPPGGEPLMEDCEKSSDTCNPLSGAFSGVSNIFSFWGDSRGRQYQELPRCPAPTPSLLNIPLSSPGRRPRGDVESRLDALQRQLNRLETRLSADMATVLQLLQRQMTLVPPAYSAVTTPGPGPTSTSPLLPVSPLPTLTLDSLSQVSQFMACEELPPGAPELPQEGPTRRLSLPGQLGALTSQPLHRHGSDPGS

- concentration at 8 h [1]: 340 nM
- concentration at 1 h [2]: 1890 nM
- concentration at 8 h [3]: 4000 nM
- remaining at 0.5 h, 1 µM [4]: 92%
- remaining at 0.5 h, 1 µM [5]: 94%
- remaining at 0.5 h, 1 µM [6]: 89%
- fraction unbound [7]: 0.01
- fraction unbound [8]: 0.02
- Papp A→B at 1.5 h, 2.5 µM [9]: 2.8 ×10⁻⁶ cm/s
- Vd [10]: 2.5 L/kg
- clearance [11]: 58 mL/min/kg
- AUC at 24 h [12]: 2.9 µM·h
- Cmax [13]: 4500 nM
- Tmax [14]: 30 min
- half-life [15]: 60 min
- Vd [16]: 0.3 L/kg
- clearance [17]: 2.3 mL/min/kg
- AUC at 24 h [18]: 47 µM·h
- Cmax [19]: 57000 nM
- Tmax [20]: 30 min
- half-life [21]: 210 min
- bioavailability [22]: 92%
- bioavailability [23]: 97%
- concentration at 1 h [24]: 1900 nM
- concentration at 2 h [25]: 1160 nM
- concentration at 8 h [26]: 40 nM
- concentration at 1 h [27]: 270 nM
- concentration at 2 h [28]: 140 nM
- concentration at 8 h [29]: 80 nM
- concentration at 1 h [30]: 153000 nM
- concentration at 2 h [31]: 96000 nM
- concentration at 8 h [32]: 5300 nM
- concentration at 1 h [33]: 170 nM
- concentration at 2 h [34]: 180 nM
- concentration at 8 h [35]: 20 nM
- concentration at 1 h [36]: 360 nM
- concentration at 2 h [37]: 260 nM
- concentration at 8 h [38]: 110 nM
- concentration at 1 h [39]: 37000 nM
- concentration at 2 h [40]: 47000 nM
- concentration at 2 h [41]: 2500 nM
- concentration at 1 h [42]: 105000 nM
- concentration at 2 h [43]: 72000 nM
- concentration at 8 h [44]: 32000 nM
SMILES: O=C(Nc1ccc(N2CCC3(CC2)CC(C(=O)O)C3)nc1)c1nnc(Nc2ccc(F)c(F)c2)o1
- inhibition at 2 h, 30 µM (hERG (KCNH2)): 22%
